Where two headings read alike, the source gives them in different places.
What was measured:
[1] = system: 8 mm diameter round wound; conditions: cited from earlier work
[2] = 0.05% Brij-78, corneal application, cited from earlier work; for peptide in aqueous humor / peptide in vitreous humor: 20 and 40 minutes
porcine kidney = conditions: 100 μm in Belzer's solution, on ice 24 h; cited from earlier work
[3] = system: 8 mm wide circular excisional skin injuries; conditions: 100 μM in 30% pluronic gel; 10-14 day time course; cited from earlier work
[4] = system: 4 mm long incisional skin injury; conditions: 60 μM in 20% pluronic gel, cited from earlier work
[5] = system: choroidal neovascularization; conditions: mouse, in vivo; cited from earlier work
silicone implants = conditions: days 1, 2, 3, 14, and 28; cited from earlier work
[6] = system: Human umbilical vein endothelial cells (HUVECs); conditions: cited from earlier work
GST-Cx43 CT QQ/KK = biological target: T1, GST-Cx43 CT QQ/KK (Rattus norvegicus, UniProt P08050, K345Q/K346Q); experiment: EDC cross-linking, Cx43 CT QQ/KK mutant substrate; type: binding; conditions: 5, 10 and 25 μM
T1 construct: pGEX-6-P2 Cx43 CT amino acids 255-382; made in house; host or cells: E. coli BL21
Experimental: To characterize the interaction between the Cx43 CT substrate and peptides, the in vitro kinase assay was performed as above with modification and the constituents then subjected to a cross-linking reaction. The assay buffer used was 20 mM 3-(N-morpholino) propanesulfonic acid (MOPS), pH 7.2. All other reagents present in the kinase reaction were maintained as described above. The reaction was allowed to proceed at 37° C. for 15 minutes. Afterwards, the carbodiimide crosslinker 1-Ethyl-3-(3-dimethylaminopropyl) carbodiimide HCl (EDC) (Thermo, 22980) was added to each solution for a final concentration of 20 mM. The solution was allowed to cross-link for one hour at room temperature. The reaction was stopped by the addition of 4×LDS loading buffer, boiled for 5 minutes and subsequently separated by PAGE. The resulting gel was stained in Coomassie brilliant blue (Sigma, B0770) for two hours and destained in a solution of 4% methanol 7% acetic acid overnight. Gel bands were subsequently excised for mass spectrometric analysis. For the direct interaction between protein and peptides, PBS, pH 7.5 was used as the coupling buffer. The protein (50 μg/ml) and peptide (25 μM) were allowed to react at room temperature for one hour before EDAC was added to the reaction mixture. The reaction was Western blotted for Cx43, GST or NeutroAvidin.

[7] = system: Neonatal cardiac fibroblasts (NHFs); experiment: Collagen synthesis by neonatal cardiac fibroblasts, Western blotting; type: cell-based, rat
Text: Isolation and treatment of Neonatal Cardiac Fibroblasts with Cx43 based peptides (peptides used included ACT1, JM1, JM2, Antennapedia [ANT], reverse ACT1 [Rev], poly Arginine [poly r]). Said peptides with and without internalization vectors can be loaded into the provided EVs and can elicit results similar to those observed for naked peptide as follows. Neonatal cardiac fibroblasts (NHFs) were isolated from 3-4 day old rat hearts by collagenase digestion (100 U/mL) and differential attachment as previously described (Borg et ah, 1984). All cells were maintained in Dulbecco's Modified Eagle Medium (DMEM) supplemented with 10% Fetal Bovine Serum and 100 U/mL penicillin G and 100 μg/mL streptomycin and used prior to passage four. For experiments, 40,000 NHFs were plated into the wells of a 24-well tissue culture plate and grown for 24-48 hours. On the day of treatment, media was removed from each well and replaced with fresh media containing 50 μg/mL L-ascorbic acid-2-phosphate; Sigma Chemical Co., St. Louis, MO). The appropriate volume of each peptide (resuspended in sterile, deionized 18 MQ resistivity water) was added to achieve the desired final concentration (30, 90, 180 µM peptide concentrations were tested). Culture plates were incubated overnight in a 37° C. incubator with 5% C02.
Protein Isolation and Examination of Collagen Synthesis by Western Blotting. Conditioned culture media was collected from each well and stored at −20° C. for analysis of soluble collagen. Cellular protein, including insoluble collagen and collagen still within the NHFs, were isolated by adding 100-200 μL, of cell lysis buffer (0.01 M Tris, pH 7.4, 0.001 M Sodium Orthovanadate, 1% sodium dodecylsulfate [SDS]) to each well and incubating 10 minutes at room temperature. Prior to addition, cell lysis buffer was warmed to facilitate solubilization of SDS and 100 u L of Halt protease inhibitor (Pierce Biotechnology, Rockford, IL) was added per 10 mL buffer to be used. After incubation, the well bottoms were scraped and liquid transferred to a microcentrifuge tube for storage at −20° C. Protein concentrations of cell lysates were determined using a Micro BCA assay (Pierce). SDS-PAGE samples were prepared by combining either 10 μg of cell lysate or 30 μL of conditioned media with XT loading buffer (BioRad, Hercules, CA), dithiothreitol and boiled for five minutes. Samples were loaded onto 3-8% Tris-Acetate Criterion X T gels (BioRad, Hercules, CA) and proteins separated at 140V. After electrophoresis, proteins were transferred onto […] nitrocellulose membranes (BioRad) overnight at room temperature (Transfer buffer: 25 mM Tris, 192 mM Glycine, 20% Methanol, 0.01% SDS). The presence of collagen was determined by probing the membranes with a rabbit anti-mouse collagen type I antibody (MD Biosciences) at 1:20,000 dilution in blocking buffer (5% milk in Tris-buffered saline) followed by a goat anti-rabbit IgG horseradish peroxidase conjugated antibody at 1:100,000 (Southern Biotech Associates) and detection with Pierce SuperSignal Femto West detection reagent (Pierce). To assess the activity of JM1 and JM2 peptides with respect to collagen production and their potential in mediating wound healing, cardiac fibroblasts were treated with these two peptides and their effectiveness compared to that for the previous described Cx43 peptide ACT1. NHFs were treated with various concentrations of JM1, JM2, ACT1, and ANT (Antennapedia) peptides, vehicle (water) or left untreated and the production of collagen both in the culture media and cell-associated collagen assessed by western blotting. […] To evaluate the impact of the poly-Arginine (poly-r)N-terminal sequence on JM1 and Jm2 activity, NHF cells were treated with a poly-r peptide.

T1 sequence (P08050 255-382 K345Q/K346Q): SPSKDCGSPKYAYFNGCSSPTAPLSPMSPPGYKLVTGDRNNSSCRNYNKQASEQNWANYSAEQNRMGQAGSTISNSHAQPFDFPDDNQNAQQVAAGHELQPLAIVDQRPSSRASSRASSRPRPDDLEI

In the case of RQPKIWFPNRRKPWKKRPRPDDLEI [alpha CT1], the scar size ([1]; 150 μM peptide, collagen gel, 30 days) is listed as “significantly (p<0.05) smaller than the controls”, the wound closure rate ([1]; rat, in vivo) is listed as “consistent significantly faster closure rates than the other 4 wounds” and the “peptide in aqueous humor” value [2] is listed as “detectable level of ACT1 in the internal fluids of the anterior chamber”. For the same sequence, the “peptide in vitreous humor” value [2] was “Lower levels of ACT1 could also be detected”, the “peptide in aqueous humor” value ([2]; listed as ACTI) was “detectable level of ACTI in the internal fluids of the anterior chamber” and the “peptide in vitreous humor” value ([2]; listed as ACTI) was “Lower levels of peptide could also be detected”. For the same sequence, the “peptide in retinal pigment epithelial layer” value [2] was “ACT1 was detectable in the retinal pigment epithelial layer”, the “peptide in retinal pigment epithelial layer” value ([2]; listed as ACTI) was “peptide was detectable in the retinal pigment epithelial layer” and the Cx43 staining (porcine kidney) was “Punctate Cx43 staining in the membrane (gap junctions) were preserved”. The nitrotyrosine staining (porcine kidney) was “no changes in nitrotyrosine staining in the presence of ACT1 peptide”, the “healing of excisional injuries” value [3] was “closed faster, were less inflamed in appearance, healed faster and scarred less” and the “appearance of incisional injury” value ([4]; at 7 days) was “smoother and less scarred appearance”. For the same sequence, the “appearance of incisional injury” value ([4]; by 48 hours) was “significantly more closed, less inflamed, less swollen”, the “CNV injury spread and retinal function (ERG)” value [5] was “reduced CNV injury spread and improved retinal function” and the “wound-healing and foreign body responses” value (silicone implants) was “attenuating neutrophil infiltration, increasing vascularity of the capsule tissue, reducing type I collagen deposition around the implant, and reducing the continued presence of contractile myofibroblasts”. The “protection from oxidative stress” value ([6]; H2O2) was “significantly protects endothelial cells from H2O2”, the cellular injury ([6]; UW solution containing 100 μM) was “significantly reduced cellular injury as compared to untreated controls” and the “IL-8 secretion and MHC II expression” value ([6]; UW solution supplemented with peptide) was “significant reduction in IL-8 secretion and MHC Class II expression”. For the same sequence, the “TEER and IL-8 secretion post reperfusion” value ([6]; UW+ACT1 solution) was “improved TEER and reduced IL-8 secretion”, the “EDC cross-linking to Cx43 CT QQ/KK mutant substrate” value (GST-Cx43 CT QQ/KK) was “no evidence of cross-linking” and the “mature type I collagen in conditioned media” value ([7]; 30, 90, 180 µM) was “dose-dependent reduction in the secretion of mature, fully processed collagen”.

With VFFKGVKDRVKGRSD [JM2] the “mature type I collagen in conditioned media” value ([7]; 180 μM) was “no mature type I collagen was detected”, the “mature type I collagen in conditioned media” value ([7]; 30, 90, 180 µM) was “dose-dependent decrease in the production of mature, type I collagen” and the “collagen produced versus poly-r peptide” value ([7]; about 90 μM) was “less than half of that produced by cells treated with the poly-r peptide”. The “mature type I collagen in cell lysate” value ([7]; versus ACT1 peptide) was “more profound reduction in the amount of mature type I collagen”.

Reference: US20250221936A1, “ENGINEERED HEMICHANNELS, ENGINEERED VESICLES, AND USES THEREOF” (VIRGINIA TECH INTELLECTUAL PROPERTIES, INC., priority 2018, published 2025)
